Assay results reported in the NIST ThermoML archive (doi:10.1021/je4007844).

Conditions: Liquid; for viscosity: Concentric cylinders viscometry

CCCCCC[n+]1ccn(C)c1.O=S(=O)([N-]S(=O)(=O)C(F)(F)F)C(F)(F)F
101.33 kPa
Conditions | viscosity [mPa·s]
293.15 K | 90.06
303.15 K | 56.25
313.15 K | 37.44
323.15 K | 26.25
333.15 K | 19.21
343.15 K | 14.55
353.15 K | 11.36
363.15 K | 9.091
373.15 K | 7.434

Conditions | mass density [kg/m3]
293.15 K, 101.33 kPa, Vibrating tube method | 1376.3
303.15 K, 101.33 kPa, Vibrating tube method | 1367.1
312.6 K, 100 kPa, Bellows volumetry | 1358.5
312.6 K, 10000 kPa, Bellows volumetry | 1365.7
312.6 K, 20000 kPa, Bellows volumetry | 1373
312.6 K, 30000 kPa, Bellows volumetry | 1380.1
312.6 K, 40000 kPa, Bellows volumetry | 1386.7
312.6 K, 50000 kPa, Bellows volumetry | 1392.8
312.6 K, 60000 kPa, Bellows volumetry | 1399
312.6 K, 70000 kPa, Bellows volumetry | 1404.6
312.6 K, 80000 kPa, Bellows volumetry | 1410.2
312.6 K, 90000 kPa, Bellows volumetry | 1415.5
312.6 K, 100000 kPa, Bellows volumetry | 1420.7
312.6 K, 110000 kPa, Bellows volumetry | 1425.8
312.6 K, 120000 kPa, Bellows volumetry | 1430.8
312.6 K, 130000 kPa, Bellows volumetry | 1435.5
312.6 K, 140000 kPa, Bellows volumetry | 1440.1
312.6 K, 150000 kPa, Bellows volumetry | 1444.5
312.6 K, 160000 kPa, Bellows volumetry | 1448.9
312.6 K, 170000 kPa, Bellows volumetry | 1453
312.6 K, 180000 kPa, Bellows volumetry | 1457.6
312.6 K, 190000 kPa, Bellows volumetry | 1461.6
312.6 K, 200000 kPa, Bellows volumetry | 1465.9
313.15 K, 101.33 kPa, Vibrating tube method | 1358
323.15 K, 101.33 kPa, Vibrating tube method | 1348.9
332.4 K, 100 kPa, Bellows volumetry | 1340
332.4 K, 10000 kPa, Bellows volumetry | 1348.1
332.4 K, 20000 kPa, Bellows volumetry | 1355.9
332.4 K, 30000 kPa, Bellows volumetry | 1363.3
332.4 K, 40000 kPa, Bellows volumetry | 1370.4
332.4 K, 50000 kPa, Bellows volumetry | 1377
332.4 K, 60000 kPa, Bellows volumetry | 1383.2
332.4 K, 70000 kPa, Bellows volumetry | 1389.3
332.4 K, 80000 kPa, Bellows volumetry | 1395.1
332.4 K, 90000 kPa, Bellows volumetry | 1400.5
332.4 K, 100000 kPa, Bellows volumetry | 1406.3
332.4 K, 110000 kPa, Bellows volumetry | 1411.5
332.4 K, 120000 kPa, Bellows volumetry | 1416.5
332.4 K, 130000 kPa, Bellows volumetry | 1421.3
332.4 K, 140000 kPa, Bellows volumetry | 1426.1
332.4 K, 150000 kPa, Bellows volumetry | 1430.9
332.4 K, 160000 kPa, Bellows volumetry | 1435.4
332.4 K, 170000 kPa, Bellows volumetry | 1439.7
332.4 K, 180000 kPa, Bellows volumetry | 1444
332.4 K, 190000 kPa, Bellows volumetry | 1448.4
332.4 K, 200000 kPa, Bellows volumetry | 1452.6
333.15 K, 101.33 kPa, Vibrating tube method | 1339.9
343.15 K, 101.33 kPa, Vibrating tube method | 1331
352.3 K, 100 kPa, Bellows volumetry | 1322.2
352.3 K, 10000 kPa, Bellows volumetry | 1330.9
352.3 K, 20000 kPa, Bellows volumetry | 1339.3
352.3 K, 30000 kPa, Bellows volumetry | 1347.3
352.3 K, 40000 kPa, Bellows volumetry | 1354.5
352.3 K, 50000 kPa, Bellows volumetry | 1361.5
352.3 K, 60000 kPa, Bellows volumetry | 1368.2
352.3 K, 70000 kPa, Bellows volumetry | 1374.6
352.3 K, 80000 kPa, Bellows volumetry | 1380.6
352.3 K, 90000 kPa, Bellows volumetry | 1386.5
352.3 K, 100000 kPa, Bellows volumetry | 1392
352.3 K, 110000 kPa, Bellows volumetry | 1397.5
352.3 K, 120000 kPa, Bellows volumetry | 1402.7
352.3 K, 130000 kPa, Bellows volumetry | 1408
352.3 K, 140000 kPa, Bellows volumetry | 1412.8
352.3 K, 150000 kPa, Bellows volumetry | 1417.6
352.3 K, 160000 kPa, Bellows volumetry | 1422.1
352.3 K, 170000 kPa, Bellows volumetry | 1426.8
352.3 K, 180000 kPa, Bellows volumetry | 1431.4
352.3 K, 190000 kPa, Bellows volumetry | 1435.5
352.3 K, 200000 kPa, Bellows volumetry | 1439.9
353.15 K, 101.33 kPa, Vibrating tube method | 1322.2
363.15 K, 101.33 kPa, Vibrating tube method | 1313.3
372.5 K, 100 kPa, Bellows volumetry | 1304.4
372.5 K, 10000 kPa, Bellows volumetry | 1313.7
372.5 K, 20000 kPa, Bellows volumetry | 1322.6
372.5 K, 30000 kPa, Bellows volumetry | 1330.9
372.5 K, 40000 kPa, Bellows volumetry | 1338.6
372.5 K, 50000 kPa, Bellows volumetry | 1346
372.5 K, 60000 kPa, Bellows volumetry | 1353
372.5 K, 70000 kPa, Bellows volumetry | 1359.6
372.5 K, 80000 kPa, Bellows volumetry | 1366
372.5 K, 90000 kPa, Bellows volumetry | 1372.1
372.5 K, 100000 kPa, Bellows volumetry | 1378
372.5 K, 110000 kPa, Bellows volumetry | 1383.7
372.5 K, 120000 kPa, Bellows volumetry | 1389.1
372.5 K, 130000 kPa, Bellows volumetry | 1394.3
372.5 K, 140000 kPa, Bellows volumetry | 1399.4
372.5 K, 150000 kPa, Bellows volumetry | 1404.4
372.5 K, 160000 kPa, Bellows volumetry | 1409.3
372.5 K, 170000 kPa, Bellows volumetry | 1414
372.5 K, 180000 kPa, Bellows volumetry | 1418.5
372.5 K, 190000 kPa, Bellows volumetry | 1423.1
372.5 K, 200000 kPa, Bellows volumetry | 1427.4
373.15 K, 101.33 kPa, Vibrating tube method | 1304.7
392.7 K, 100 kPa, Bellows volumetry | 1286.8
392.7 K, 10000 kPa, Bellows volumetry | 1296.8
392.7 K, 20000 kPa, Bellows volumetry | 1306.3
392.7 K, 30000 kPa, Bellows volumetry | 1315.1
392.7 K, 40000 kPa, Bellows volumetry | 1323.4
392.7 K, 50000 kPa, Bellows volumetry | 1331.1
392.7 K, 60000 kPa, Bellows volumetry | 1338.5
392.7 K, 70000 kPa, Bellows volumetry | 1345.4
392.7 K, 80000 kPa, Bellows volumetry | 1352.1
392.7 K, 90000 kPa, Bellows volumetry | 1358.3
392.7 K, 100000 kPa, Bellows volumetry | 1364.5
392.7 K, 110000 kPa, Bellows volumetry | 1370.3
392.7 K, 120000 kPa, Bellows volumetry | 1376
392.7 K, 130000 kPa, Bellows volumetry | 1381.5
392.7 K, 140000 kPa, Bellows volumetry | 1386.8
392.7 K, 150000 kPa, Bellows volumetry | 1391.9
392.7 K, 160000 kPa, Bellows volumetry | 1397
392.7 K, 170000 kPa, Bellows volumetry | 1401.8
392.7 K, 180000 kPa, Bellows volumetry | 1406.5
392.7 K, 190000 kPa, Bellows volumetry | 1411.1
392.7 K, 200000 kPa, Bellows volumetry | 1415.7
412.7 K, 100 kPa, Bellows volumetry | 1269.8
412.7 K, 10000 kPa, Bellows volumetry | 1280.4
412.7 K, 20000 kPa, Bellows volumetry | 1290.4
412.7 K, 30000 kPa, Bellows volumetry | 1299.8
412.7 K, 40000 kPa, Bellows volumetry | 1308.4
412.7 K, 50000 kPa, Bellows volumetry | 1316.5
412.7 K, 60000 kPa, Bellows volumetry | 1324.3
412.7 K, 70000 kPa, Bellows volumetry | 1331.5
412.7 K, 80000 kPa, Bellows volumetry | 1338.5
412.7 K, 90000 kPa, Bellows volumetry | 1345
412.7 K, 100000 kPa, Bellows volumetry | 1351.3
412.7 K, 110000 kPa, Bellows volumetry | 1357.5
412.7 K, 120000 kPa, Bellows volumetry | 1363.2
412.7 K, 130000 kPa, Bellows volumetry | 1368.9
412.7 K, 140000 kPa, Bellows volumetry | 1374.3
412.7 K, 150000 kPa, Bellows volumetry | 1379.8
412.7 K, 160000 kPa, Bellows volumetry | 1384.9
412.7 K, 170000 kPa, Bellows volumetry | 1389.9
412.7 K, 180000 kPa, Bellows volumetry | 1394.7
412.7 K, 190000 kPa, Bellows volumetry | 1399.4
412.7 K, 200000 kPa, Bellows volumetry | 1404
432.6 K, 100 kPa, Bellows volumetry | 1252.4
432.6 K, 10000 kPa, Bellows volumetry | 1263.7
432.6 K, 20000 kPa, Bellows volumetry | 1274.3
432.6 K, 30000 kPa, Bellows volumetry | 1284.2
432.6 K, 40000 kPa, Bellows volumetry | 1293.3
432.6 K, 50000 kPa, Bellows volumetry | 1301.7
432.6 K, 60000 kPa, Bellows volumetry | 1309.7
432.6 K, 70000 kPa, Bellows volumetry | 1317.3
432.6 K, 80000 kPa, Bellows volumetry | 1324.5
432.6 K, 90000 kPa, Bellows volumetry | 1331.2
432.6 K, 100000 kPa, Bellows volumetry | 1337.8
432.6 K, 110000 kPa, Bellows volumetry | 1344.1
432.6 K, 120000 kPa, Bellows volumetry | 1350.3
432.6 K, 130000 kPa, Bellows volumetry | 1356.1
432.6 K, 140000 kPa, Bellows volumetry | 1361.9
432.6 K, 150000 kPa, Bellows volumetry | 1367.3
432.6 K, 160000 kPa, Bellows volumetry | 1372.4
432.6 K, 170000 kPa, Bellows volumetry | 1377.5
432.6 K, 180000 kPa, Bellows volumetry | 1382.5
432.6 K, 190000 kPa, Bellows volumetry | 1387.4
432.6 K, 200000 kPa, Bellows volumetry | 1392.2
452.3 K, 100 kPa, Bellows volumetry | 1235.6
452.3 K, 10000 kPa, Bellows volumetry | 1247.6
452.3 K, 20000 kPa, Bellows volumetry | 1258.8
452.3 K, 30000 kPa, Bellows volumetry | 1269.2
452.3 K, 40000 kPa, Bellows volumetry | 1278.8
452.3 K, 50000 kPa, Bellows volumetry | 1287.6
452.3 K, 60000 kPa, Bellows volumetry | 1295.9
452.3 K, 70000 kPa, Bellows volumetry | 1303.9
452.3 K, 80000 kPa, Bellows volumetry | 1311.3
452.3 K, 90000 kPa, Bellows volumetry | 1318.3
452.3 K, 100000 kPa, Bellows volumetry | 1325.1
452.3 K, 110000 kPa, Bellows volumetry | 1331.8
452.3 K, 120000 kPa, Bellows volumetry | 1338
452.3 K, 130000 kPa, Bellows volumetry | 1344.1
452.3 K, 140000 kPa, Bellows volumetry | 1349.9
452.3 K, 150000 kPa, Bellows volumetry | 1355.5
452.3 K, 160000 kPa, Bellows volumetry | 1360.8
452.3 K, 170000 kPa, Bellows volumetry | 1366.2
452.3 K, 180000 kPa, Bellows volumetry | 1371.3
452.3 K, 190000 kPa, Bellows volumetry | 1376.4
452.3 K, 200000 kPa, Bellows volumetry | 1381.2

CCCCCCn1cc[n+](C)c1.[Cl-] [1-hexyl-3-methylimidazolium chloride]
101.33 kPa, Vibrating tube method
Conditions | mass density [kg/m3]
303.15 K | 1035.1
313.15 K | 1029.5
323.15 K | 1023.9
333.15 K | 1018.4
343.15 K | 1012.8
353.15 K | 1007.4
363.15 K | 1002.1
373.15 K | 997.1

101.33 kPa
Conditions | viscosity [mPa·s]
323.15 K | 1806
333.15 K | 810.3
343.15 K | 404.3
353.15 K | 220.6
363.15 K | 129.7
373.15 K | 81.34
